Measurements taken from patent US20100298141A1, “SUBSTITUTED PYRIDINE N-OXIDE HERBICIDES” (E. I. DU PONT DE NEMOURS AND COMPANY, priority 2007, published 2010).

Key:
Experiment in all cases: Test F preemergence test
bermudagrass = format: in vivo, Cynodon dactylon; details: scale 0 to 100
Source text: (§1) Seeds of plant species selected from bermudagrass (Cynodon dactylon), Surinam grass (Brachiaria decumbens), large crabgrass (Digitaria sanguinalis), green foxtail (Setaria viridis), goosegrass (Eleusine indica), johnsongrass (Sorghum halepense), kochia (Kochia scoparia), pitted morningglory (Ipomoea lacunosa), purple nutsedge (Cyperus rotundus), common ragweed (Ambrosia elation), mustard (Brassica nigra), guineagrass (Panicum maximum), […] (Paspalum dilatatum), barnyardgrass (Echinochloa crus-galli), southern sandbur (Cenchrus echinatus), common sowthistle (Sonchus oleraceous), prickly […] spinosa), Italian ryegrass (Lolium multiflorum), common purslane (Portulaca oleracea), broadleaf signalgrass (Brachiaria platyphylla), common groundsel (Senecio vulgaris), common chickweed (Stellaria media), Virginia dayflower (Commelina virginica), annual bluegrass (Poa annua), naked crabgrass (Digitaria nuda), […] cochinchinensis), quackgrass (Elytrigia repens), Canada horseweed (Conyza canadensis), field bindweed (Convolvulus arvensis), […] (Bidens bipinnata), common mallow (Malva sylvestris), Russian thistle (Salsola kali), and sugarcane (Saccharum officinarum) were planted and treated preemergence with test chemicals formulated in a non-phytotoxic solvent mixture which included a surfactant. At a different time, sugarcane was treated with postemergence applications of some of the test chemicals formulated in the same manner. Plants were approximately 3- to 4-leaf stage for the postemergence treatments. Treated plants and controls were maintained in a greenhouse for 14 to 21 days, after which time all species were compared to controls and visually evaluated. […] A dash (-) response means no test result.

Surinam grass = format: in vivo, Brachiaria decumbens; details: scale 0 to 100
Source text: as §1

large crabgrass = format: in vivo, Digitaria sanguinalis; details: scale 0 to 100
Source text: as §1

goosegrass = format: in vivo, Eleusine indica; details: scale 0 to 100
Source text: as §1

johnsongrass = format: in vivo, Sorghum halepense; details: scale 0 to 100
Source text: as §1

kochia = format: in vivo, Kochia scoparia; details: scale 0 to 100
Source text: as §1

common ragweed = format: in vivo, Ambrosia elation; details: scale 0 to 100
Source text: as §1

mustard = format: in vivo, Brassica nigra; details: scale 0 to 100
Source text: as §1

guineagrass = format: in vivo, Panicum maximum; details: scale 0 to 100
Source text: as §1

dallisgrass = format: in vivo, Paspalum dilatatum; details: scale 0 to 100
Source text: as §1

barnyardgrass = format: in vivo, Echinochloa crus-galli
Source text: as §1

prickly sida = format: in vivo, Sida spinosa; details: scale 0 to 100
Source text: as §1

Italian ryegrass = format: in vivo, Lolium multiflorum; details: scale 0 to 100
Source text: as §1

common purslane = format: in vivo, Portulaca oleracea; details: scale 0 to 100
Source text: as §1

broadleaf signalgrass = format: in vivo, Brachiaria platyphylla; details: scale 0 to 100
Source text: as §1

common groundsel = format: in vivo, Senecio vulgaris; details: scale 0 to 100
Source text: as §1

naked crabgrass = format: in vivo, Digitaria nuda; details: scale 0 to 100
Source text: as §1

itchgrass = format: in vivo, Rottboellia cochinchinensis; details: scale 0 to 100
Source text: as §1

quackgrass = format: in vivo, Elytrigia repens; details: scale 0 to 100
Source text: as §1

Cn1nc(OC(F)F)c(CS(=O)(=O)c2cccc[n+]2[O-])c1C(F)(F)F [Compound 80]
15: Plant response rating, Ryegrass, Italian (Italian ryegrass; 16 g ai/ha, preemergence)
50: Plant response rating, Bermudagrass (bermudagrass; 16 g ai/ha, preemergence) | Plant response rating, Johnsongrass (johnsongrass; 16 g ai/ha, preemergence) | Black Mustard plant response rating (mustard; 125 g ai/ha, preemergence) | Groundsel plant response rating (common groundsel; 125 g ai/ha, preemergence)
75: Plant response rating, Johnsongrass (johnsongrass; Preemergence, 31 g ai/ha) | Plant response rating, Guineagrass (guineagrass; 16 g ai/ha, preemergence) | Plant response rating, Signalgrass (broadleaf signalgrass; Preemergence, 62 g ai/ha) | Plant response rating, Crabgrass, Naked (naked crabgrass; Preemergence, 31 g ai/ha) | Quackgrass plant response rating (quackgrass; 125 g ai/ha, preemergence)
20: Prickly Sida plant response rating (prickly sida; 125 g ai/ha, preemergence) | Plant response rating, Ryegrass, Italian (Italian ryegrass; Preemergence, 31 g ai/ha) | Plant response rating, Itchgrass (itchgrass; Preemergence, 31 g ai/ha)
35: Kochia plant response rating (kochia; 62 g ai/ha, Preemergence)
90: Bermudagrass plant response rating (bermudagrass; 62 g ai/ha, Preemergence) | Crabgrass, Large plant response rating (large crabgrass; 125 g ai/ha, preemergence) | Johnsongrass plant response rating (johnsongrass; 62 g ai/ha, Preemergence) | Kochia plant response rating (kochia; 125 g ai/ha, preemergence) | Ragweed plant response rating (common ragweed; 125 g ai/ha, preemergence) | Plant response rating, Barnyardgrass (barnyardgrass; Preemergence, 31 g ai/ha, scale 0 to 100) | Crabgrass, Naked plant response rating (naked crabgrass; 62 g ai/ha, Preemergence) | Itchgrass plant response rating (itchgrass; 125 g ai/ha, preemergence)
95: Goosegrass plant response rating (goosegrass; 62 g ai/ha, Preemergence) | Dallisgrass plant response rating (dallisgrass; 62 g ai/ha, Preemergence) | Barnyardgrass plant response rating (barnyardgrass; 62 g ai/ha, Preemergence, scale 0 to 100)
40: Plant response rating, Crabgrass, Large (large crabgrass; 16 g ai/ha, preemergence) | Plant response rating, Dallisgrass (dallisgrass; 16 g ai/ha, preemergence)
25: Plant response rating, Signalgrass (broadleaf signalgrass; 16 g ai/ha, preemergence) | Plant response rating, Signalgrass (broadleaf signalgrass; Preemergence, 31 g ai/ha)
100: Surinam Grass plant response rating (Surinam grass; 125 g ai/ha, preemergence) | Goosegrass plant response rating (goosegrass; 125 g ai/ha, preemergence) | Guineagrass plant response rating (guineagrass; 125 g ai/ha, preemergence) | Dallisgrass plant response rating (dallisgrass; 125 g ai/ha, preemergence) | Barnyardgrass plant response rating (barnyardgrass; 125 g ai/ha, preemergence, scale 0 to 100) | Crabgrass, Naked plant response rating (naked crabgrass; 125 g ai/ha, preemergence)
65: Ryegrass, Italian plant response rating (Italian ryegrass; 125 g ai/ha, preemergence) | Plant response rating, Ryegrass, Italian (Italian ryegrass; Preemergence, 62 g ai/ha) | Quackgrass plant response rating (quackgrass; 62 g ai/ha, Preemergence) | Plant response rating, Quackgrass (quackgrass; Preemergence, 31 g ai/ha)
0: Plant response rating, Surinam Grass (Surinam grass; 16 g ai/ha, preemergence) | Plant response rating, Kochia (kochia; 16 g ai/ha, preemergence) | Plant response rating, Kochia (kochia; Preemergence, 31 g ai/ha) | Plant response rating, Ragweed (common ragweed; 16 g ai/ha, preemergence) | Plant response rating, Ragweed (common ragweed; Preemergence, 31 g ai/ha) | Plant response rating, Black Mustard (mustard; 16 g ai/ha, preemergence) | Black Mustard plant response rating (mustard; 62 g ai/ha, Preemergence) | Plant response rating, Black Mustard (mustard; Preemergence, 31 g ai/ha) | Plant response rating, Prickly Sida (prickly sida; 16 g ai/ha, preemergence) | Prickly Sida plant response rating (prickly sida; 62 g ai/ha, Preemergence) | Plant response rating, Prickly Sida (prickly sida; Preemergence, 31 g ai/ha) | Plant response rating, Purslane (common purslane; 16 g ai/ha, preemergence) | Purslane plant response rating (common purslane; 62 g ai/ha, Preemergence) | Purslane plant response rating (common purslane; 125 g ai/ha, preemergence) | Plant response rating, Purslane (common purslane; Preemergence, 31 g ai/ha) | Groundsel plant response rating (common groundsel; 62 g ai/ha, Preemergence) | Plant response rating, Groundsel (common groundsel; Preemergence, 31 g ai/ha) | Plant response rating, Crabgrass, Naked (naked crabgrass; 16 g ai/ha, preemergence)
80: Plant response rating, Bermudagrass (bermudagrass; Preemergence, 31 g ai/ha) | Plant response rating, Surinam Grass (Surinam grass; Preemergence, 31 g ai/ha) | Crabgrass, Large plant response rating (large crabgrass; 62 g ai/ha, Preemergence) | Plant response rating, Crabgrass, Large (large crabgrass; Preemergence, 31 g ai/ha) | Plant response rating, Goosegrass (goosegrass; 16 g ai/ha, preemergence) | Plant response rating, Dallisgrass (dallisgrass; Preemergence, 31 g ai/ha)
60: Itchgrass plant response rating (itchgrass; 62 g ai/ha, Preemergence)
10: Plant response rating, Itchgrass (itchgrass; 16 g ai/ha, preemergence) | Plant response rating, Quackgrass (quackgrass; 16 g ai/ha, preemergence)
98: Bermudagrass plant response rating (bermudagrass; 125 g ai/ha, preemergence) | Plant response rating, Surinam Grass (Surinam grass; Preemergence, 62 g ai/ha) | Johnsongrass plant response rating (johnsongrass; 125 g ai/ha, preemergence) | Guineagrass plant response rating (guineagrass; 62 g ai/ha, Preemergence) | Plant response rating, Guineagrass (guineagrass; Preemergence, 31 g ai/ha) | Signalgrass plant response rating (broadleaf signalgrass; 125 g ai/ha, preemergence)
85: Plant response rating, Goosegrass (goosegrass; Preemergence, 31 g ai/ha) | Plant response rating, Barnyardgrass (barnyardgrass; 16 g ai/ha, preemergence, scale 0 to 100 (0 no effect, 100 complete control))
